Legend:
Assay in all cases: Test B pre-/postemergence plant response
Format in all cases: in vivo
[1] = tested on: bermudagrass (Cynodon dactylon); conditions: for Bermudagrass plant response rating: 8 g ai/ha
In short: (§1)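 Visual scoring from 0 (no effect) to 100 (complete control) against untreated controls was done 13 to 15 days after greenhouse treatment. Chemicals were formulated in a surfactant-containing non-phytotoxic solvent and applied to soil preemergence or to 1- to 4-leaf (2-18 cm) plants postemergence.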

corn (Zea mays) = conditions: for Corn plant response rating: 8 g ai/ha
In short: as §1

[2] = tested on: Russian thistle (Salsola iberica); conditions: Preemergence
In short: as §1

[3] = tested on: woolly cupgrass (Eriochloa villosa); conditions: for Cupgrass, Woolly plant response rating: 8 g ai/ha
In short: as §1

[4] = tested on: Italian ryegrass (Lolium multiflorum); conditions: for Ryegrass, Italian plant response rating: 8 g ai/ha
In short: as §1

[5] = tested on: velvetleaf (Abutilon theophrasti); conditions: for Velvetleaf plant response rating: 8 g ai/ha
In short: as §1

kochia (Kochia scoparia) = conditions: for Kochia plant response rating: 8 g ai/ha
In short: as §1

[6] = tested on: morningglory (Ipomoea coccinea); conditions: for Morningglory plant response rating: 8 g ai/ha
In short: as §1

[7] = tested on: green foxtail (Setaria viridis); conditions: for Foxtail, Green plant response rating: 8 g ai/ha
In short: as §1

soybean (Glycine max) = conditions: for Soybean plant response rating: 8 g ai/ha
In short: as §1

[8] = tested on: pigweed (Amaranthus retroflexus); conditions: for Pigweed plant response rating: 8 g ai/ha
In short: as §1

[9] = tested on: downy bromegrass (Bromus tectorum); conditions: for Bromegrass, Downy plant response rating: 8 g ai/ha
In short: as §1

[10] = tested on: surinam grass (Brachiaria decumbens); conditions: for Surinam Grass plant response rating: 8 g ai/ha
In short: as §1

[11] = tested on: eastern black (E.B.) nightshade (Solanum ptycanthum); conditions: Preemergence
In short: as §1

[12] = Postemergence, 16 g ai/ha, scale 0 to 100
[13] = Postemergence, 31 g ai/ha, scale 0 to 100, 0 no effect, 100 complete control
[14] = Postemergence, 62 g ai/ha, scale 0 to 100, 0 no effect, 100 complete control
[15] = Preemergence, 16 g ai/ha, scale 0 to 100 (0 no effect, 100 complete control)
[16] = Preemergence, 31 g ai/ha, 0 to 100 scale, 0 no effect, 100 complete control
[17] = Preemergence, 62 g ai/ha, scale 0 to 100
[18] = 16 g ai/ha, scale 0 to 100 (0 no effect, 100 complete control)
[19] = 31 g ai/ha, scale 0 to 100 (0 no effect, 100 complete control)
[20] = Preemergence, 31 g ai/ha, scale 0 to 100 (0 no effect, 100 complete control)
[21] = Preemergence, 62 g ai/ha, 0 to 100 scale, 0 no effect, 100 complete control

For `CCc1cc(-c2ccc(Cl)cc2)nn1-c1c(OC(=O)C(C)(C)C)cnn(C)c1=O` [Compound 40], the “Bermudagrass plant response rating” value ([1]; postemergence, 0-100 scale) was 0, the “Plant response rating, Bermudagrass” value [1, 12] was 60 and the “Plant response rating, Bermudagrass” value [1, 13] was 65. For the same compound, the “Plant response rating, Bermudagrass” value [1, 14] was 98, the “Bermudagrass plant response rating” value ([1]; Preemergence, scale 0 to 100 (0 no effect, 100 complete control)) was 0 and the “Plant response rating, Bermudagrass” value [1, 15] was 90. The “Plant response rating, Bermudagrass” value [1, 16] was 100, the “Plant response rating, Bermudagrass” value [1, 17] was 100 and the “Corn plant response rating” value (corn (Zea mays); postemergence, 0-100 scale) was 0. For the same compound, the “Plant response rating, Corn” value (corn (Zea mays); [12]) was 0, the “Plant response rating, Corn” value (corn (Zea mays); [13]) was 100 and the “Plant response rating, Corn” value (corn (Zea mays); [14]) was 100. For the same compound, the “Plant response rating, Corn” value (corn (Zea mays); [15]) was 75, the “Plant response rating, Corn” value (corn (Zea mays); [16]) was 85 and the “Plant response rating, Corn” value (corn (Zea mays); [17]) was 95. For the same compound, the “Corn plant response rating” value (corn (Zea mays); Preemergence, scale 0 to 100) was 55, the “Plant response rating, Russian Thistle” value [2, 18] was 0 and the “Plant response rating, Russian Thistle” value [2, 19] was 0. The “Plant response rating, Russian Thistle” value ([2]; 62 g ai/ha, scale 0 to 100) was 0, the “Russian Thistle plant response rating” value ([2]; 8 g ai/ha, scale 0 to 100) was 0 and the “Cupgrass, Woolly plant response rating” value ([3]; postemergence, 0-100 scale) was 98. The “Plant response rating, Cupgrass, Woolly” value [3, 12] was 98, the “Plant response rating, Cupgrass, Woolly” value [3, 13] was 100 and the “Plant response rating, Cupgrass, Woolly” value [3, 14] was 100. The “Plant response rating, Cupgrass, Woolly” value [3, 15] was 100, the “Plant response rating, Cupgrass, Woolly” value [3, 16] was 100 and the “Plant response rating, Cupgrass, Woolly” value [3, 17] was 100. For the same compound, the “Cupgrass, Woolly plant response rating” value ([3]; Preemergence, scale 0 to 100) was 15, the “Ryegrass, Italian plant response rating” value ([4]; postemergence, 0-100 scale) was 80 and the “Plant response rating, Ryegrass, Italian” value [4, 12] was 100. The “Plant response rating, Ryegrass, Italian” value [4, 13] was 100, the “Plant response rating, Ryegrass, Italian” value [4, 14] was 100 and the “Plant response rating, Ryegrass, Italian” value [4, 15] was 95. For the same compound, the “Plant response rating, Ryegrass, Italian” value [4, 20] was 95, the “Plant response rating, Ryegrass, Italian” value [4, 17] was 100 and the “Ryegrass, Italian plant response rating” value ([4]; Preemergence, scale 0 to 100) was 80. The “Velvetleaf plant response rating” value ([5]; postemergence, 0-100 scale) was 0, the “Plant response rating, Velvetleaf” value [5, 12] was 0 and the “Plant response rating, Velvetleaf” value [5, 14] was 0. For the same compound, the “Plant response rating, Velvetleaf” value [5, 15] was 0, the “Plant response rating, Velvetleaf” value [5, 20] was 0 and the “Plant response rating, Velvetleaf” value [5, 21] was 0. The “Velvetleaf plant response rating” value ([5]; Preemergence, scale 0 to 100) was 0, the “Kochia plant response rating” value (kochia (Kochia scoparia); postemergence, 0-100 scale) was 0 and the “Plant response rating, Kochia” value (kochia (Kochia scoparia); [12]) was 0. The “Plant response rating, Kochia” value (kochia (Kochia scoparia); [13]) was 0, the “Plant response rating, Kochia” value (kochia (Kochia scoparia); [14]) was 0 and the “Plant response rating, Kochia” value (kochia (Kochia scoparia); [15]) was 0. For the same compound, the “Plant response rating, Kochia” value (kochia (Kochia scoparia); [16]) was 0, the “Plant response rating, Kochia” value (kochia (Kochia scoparia); [17]) was 0 and the “Kochia plant response rating” value (kochia (Kochia scoparia); Preemergence, scale 0 to 100) was 0. For the same compound, the “Morningglory plant response rating” value ([6]; postemergence, 0-100 scale) was 0, the “Plant response rating, Morningglory” value [6, 12] was 0 and the “Plant response rating, Morningglory” value [6, 13] was 0. For the same compound, the “Plant response rating, Morningglory” value [6, 14] was 0, the “Plant response rating, Morningglory” value [6, 15] was 0 and the “Plant response rating, Morningglory” value [6, 20] was 0. For the same compound, the “Plant response rating, Morningglory” value [6, 17] was 0, the “Morningglory plant response rating” value ([6]; Preemergence, scale 0 to 100) was 0 and the “Foxtail, Green plant response rating” value ([7]; postemergence, 0-100 scale) was 85. The “Plant response rating, Foxtail, Green” value [7, 12] was 95, the “Plant response rating, Foxtail, Green” value [7, 13] was 100 and the “Plant response rating, Foxtail, Green” value [7, 14] was 100. For the same compound, the “Plant response rating, Foxtail, Green” value [7, 15] was 100, the “Plant response rating, Foxtail, Green” value [7, 16] was 100 and the “Plant response rating, Foxtail, Green” value [7, 17] was 100. The “Foxtail, Green plant response rating” value ([7]; Preemergence, scale 0 to 100) was 90, the “Soybean plant response rating” value (soybean (Glycine max); postemergence, 0-100 scale) was 0 and the “Plant response rating, Soybean” value (soybean (Glycine max); [12]) was 0. For the same compound, the “Plant response rating, Soybean” value (soybean (Glycine max); [14]) was 0, the “Plant response rating, Soybean” value (soybean (Glycine max); [15]) was 0 and the “Plant response rating, Soybean” value (soybean (Glycine max); [20]) was 0. The “Plant response rating, Soybean” value (soybean (Glycine max); [17]) was 0, the “Soybean plant response rating” value (soybean (Glycine max); Preemergence, scale 0 to 100) was 0 and the “Pigweed plant response rating” value ([8]; postemergence, 0-100 scale) was 0. For the same compound, the “Plant response rating, Pigweed” value [8, 12] was 0, the “Plant response rating, Pigweed” value [8, 13] was 0 and the “Plant response rating, Pigweed” value [8, 14] was 0. For the same compound, the “Plant response rating, Pigweed” value [8, 15] was 0, the “Plant response rating, Pigweed” value [8, 20] was 0 and the “Plant response rating, Pigweed” value [8, 17] was 0. For the same compound, the “Pigweed plant response rating” value ([8]; Preemergence, scale 0 to 100) was 0, the “Bromegrass, Downy plant response rating” value ([9]; postemergence, 0-100 scale) was 50 and the “Plant response rating, Bromegrass, Downy” value [9, 12] was 60. The “Plant response rating, Bromegrass, Downy” value [9, 13] was 80, the “Plant response rating, Bromegrass, Downy” value [9, 14] was 100 and the “Plant response rating, Bromegrass, Downy” value [9, 15] was 60. For the same compound, the “Plant response rating, Bromegrass, Downy” value [9, 16] was 80, the “Plant response rating, Bromegrass, Downy” value [9, 17] was 90 and the “Bromegrass, Downy plant response rating” value ([9]; Preemergence, scale 0 to 100) was 0. The “Surinam Grass plant response rating” value ([10]; postemergence, 0-100 scale) was 98, the “Plant response rating, Surinam Grass” value [10, 12] was 100 and the “Plant response rating, Surinam Grass” value [10, 14] was 100. For the same compound, the “Plant response rating, Surinam Grass” value [10, 15] was 100, the “Plant response rating, Surinam Grass” value [10, 20] was 100 and the “Plant response rating, Surinam Grass” value [10, 21] was 100. The “Surinam Grass plant response rating” value ([10]; Preemergence, scale 0 to 100) was 80, the “Plant response rating, Nightshade, E. B.” value [11, 18] was 0 and the “Plant response rating, Nightshade, E. B.” value [11, 19] was 0. The “Plant response rating, Nightshade, E. B.” value ([11]; 62 g ai/ha, scale 0 to 100) was 0 and the “Nightshade, E. B. plant response rating” value ([11]; 8 g ai/ha, scale 0 to 100) was 0.

Reference: patent US20100267561A1, “HERBICIDAL PYRIDAZINONE DERIVATIVES” (priority 2007, published 2010)
